Measured values taken from ChEMBL document CHEMBL6078723, “Novel steroidal β-carboline derivatives as promising antibacterial candidates against methicillin-resistant Staphylococcus aureus” (Eur J Med Chem, 2025).
Activity calls are given as the source filed them. No cut-off for these calls is given here.

Tests used:
Staphylococcus aureus [1] = assay: Antibacterial activity against Staphylococcus aureus CGMCC1.8721 in presence of phosphatidylglycerol; assay type: functional, organism-based
Staphylococcus aureus [2] = assay: Induction of resistance development in Staphylococcus aureus CGMCC1.8721 assessed as fold increase in MIC at sub-lethal concentration following serial passages for 30 days relative to control; assay type: functional; conditions: time 30 day
Staphylococcus aureus [3] = assay: Antibacterial activity against methicillin-resistant Staphylococcus aureus CGMCC1.12409 infected in mouse model assessed as reduction in neutrophils in skin tissues at 5 mg/kg measured for 5 days by H and E staining based analysis; assay type: functional, organism-based; conditions: time 5.0 day
Staphylococcus aureus [4] = assay: Antibacterial activity against methicillin-resistant Staphylococcus aureus CGMCC1.12409 infected in mouse model assessed as reduction in bacterial load at infection site at 5 mg/kg measured for 5 days relative to control; assay type: functional; parameters: scale not given: the % may be the effect or the level left; conditions: time 5 day
Staphylococcus aureus [5] = assay: Antibacterial activity against methicillin-resistant Staphylococcus aureus CGMCC1.12409 infected in mouse model assessed as reduction in inflammation in skin tissues at 5 mg/kg measured for 5 days by H and E staining based analysis; assay type: functional, organism-based; conditions: time 5.0 day
Staphylococcus aureus [6] = assay: Antibacterial activity against methicillin-resistant Staphylococcus aureus CGMCC1.12409 infected in mouse model assessed as reduction in bacterial clones at 5 mg/kg measured for 5 days; assay type: functional, organism-based; conditions: time 5.0 day
Staphylococcus aureus [7] = assay: Antibacterial activity against methicillin-resistant Staphylococcus aureus CGMCC1.12409 infected in mouse model assessed as reduction in abscesses size at 5 mg/kg measured for 5 days; assay type: functional, organism-based; conditions: time 5.0 day
Staphylococcus aureus [8] = assay: Bactericidal activity against Staphylococcus aureus CGMCC1.8721 by CLSI based method; assay type: functional
Staphylococcus aureus [9] = assay: Antibacterial activity against methicillin-resistant Staphylococcus aureus ATCC 33591; assay type: functional
Staphylococcus aureus [10] = assay: Bactericidal activity against methicillin-resistant Staphylococcus aureus ATCC 33591 by CLSI based method; assay type: functional
Staphylococcus aureus [11] = assay: Bactericidal activity against methicillin-resistant Staphylococcus aureus CGMCC1.12409 by CLSI based method; assay type: functional
Staphylococcus aureus [12] = assay: Antibacterial activity against Staphylococcus aureus CGMCC1.8721; assay type: functional
Staphylococcus aureus [13] = assay: Antibacterial activity against methicillin-resistant Staphylococcus aureus ATCC 43300; assay type: functional
Staphylococcus aureus [14] = assay: Antibacterial activity against methicillin-resistant Staphylococcus aureus CGMCC1.12409; assay type: functional
Staphylococcus aureus [15] = assay: Bactericidal activity against methicillin-resistant Staphylococcus aureus ATCC 43300 by CLSI based method; assay type: functional

| Structure (SMILES) | Activity (Staphylococcus aureus [1]) | fold change (FC) (Staphylococcus aureus [2]) | Activity (Staphylococcus aureus [3]) | Activity (Staphylococcus aureus [4]) | Activity (Staphylococcus aureus [5]) | Activity (Staphylococcus aureus [6]) | Activity (Staphylococcus aureus [7]) | MBC (Staphylococcus aureus [8]) | MIC (Staphylococcus aureus [9]) | MBC (Staphylococcus aureus [10]) | MBC (Staphylococcus aureus [11]) | MIC (Staphylococcus aureus [12]) | MIC (Staphylococcus aureus [13]) | MIC (Staphylococcus aureus [14]) | MBC (Staphylococcus aureus [15]) |
| --- | --- | --- | --- | --- | --- | --- | --- | --- | --- | --- | --- | --- | --- | --- | --- |
| CO[C@H]1/C=C/O[C@@]2(C)Oc3c(C)c(O)c4c(O)c(c(/C=N/N5CCN(C)CC5)c(O)c4c3C2=O)NC(=O)/C(C)=C\C=C\[C@H](C)[C@H](O)[C@@H](C)[C@@H](O)[C@@H](C)[C@H](OC(C)=O)[C@@H]1C | Active |  |  |  |  |  |  |  |  |  |  |  |  |  |  |
| CCn1cc(C(=O)O)c(=O)c2cc(F)c(N3CCNCC3)cc21 [NORFLOXACIN] | Active | 64 |  |  |  |  |  |  |  |  |  |  |  |  |  |
| CN[C@H](CC(C)C)C(=O)N[C@H]1C(=O)N[C@@H](CC(N)=O)C(=O)N[C@H]2C(=O)N[C@H]3C(=O)N[C@H](C(=O)N[C@H](C(=O)O)c4cc(O)cc(O)c4-c4cc3ccc4O)[C@H](O)c3ccc(c(Cl)c3)Oc3cc2cc(c3O[C@@H]2O[C@H](CO)[C@@H](O)[C@H](O)[C@H]2O[C@H]2C[C@](C)(N)[C@H](O)[C@H](C)O2)Oc2ccc(cc2Cl)[C@H]1O [VANCOMYCIN] | Active |  | Active | 92.98% | Active | Active | Active |  |  |  |  |  |  |  |  |
| CNC(C)[C@@H]1CC[C@@H](N)[C@@H](O[C@H]2[C@H](O)[C@@H](O[C@H]3OC[C@](C)(O)[C@H](NC)[C@H]3O)[C@H](N)C[C@@H]2N)O1.CN[C@@H]1[C@@H](O)[C@@H](O[C@@H]2[C@@H](O)[C@H](O[C@H]3O[C@H](C(C)N)CC[C@H]3N)[C@@H](N)C[C@H]2N)OC[C@]1(C)O.CN[C@@H]1[C@@H](O)[C@@H](O[C@@H]2[C@@H](O)[C@H](O[C@H]3O[C@H](CN)CC[C@H]3N)[C@@H](N)C[C@H]2N)OC[C@]1(C)O (some centres not stated) | Active |  |  |  |  |  |  |  |  |  |  |  |  |  |  |
| COc1ccc2[nH]c3c(CC[C@H](C)[C@H]4CC[C@H]5[C@@H]6[C@H](O)C[C@@H]7C[C@H](O)CC[C@]7(C)[C@H]6C[C@H](O)[C@]45C)[n+](Cc4ccc(OC(F)(F)F)cc4)ccc3c2c1.[Br-] |  |  |  |  |  |  |  | 1 µg/mL | 2 µg/mL | 4 µg/mL | 2 µg/mL | 1 µg/mL | 1 µg/mL | 1 µg/mL | 2 µg/mL |
| CC[n+]1ccc2c([nH]c3ccc(OC)cc32)c1CC[C@H](C)[C@H]1CC[C@H]2[C@@H]3[C@H](O)C[C@@H]4C[C@H](O)CC[C@]4(C)[C@H]3CC[C@]12C.[Br-] |  |  |  |  |  |  |  | 2 µg/mL | 2 µg/mL | 4 µg/mL | 4 µg/mL | 1 µg/mL | 2 µg/mL | 2 µg/mL | 2 µg/mL |
| COc1ccc2[nH]c3c(CC[C@H](C)[C@H]4CC[C@H]5[C@@H]6[C@H](O)C[C@@H]7C[C@H](O)CC[C@]7(C)[C@H]6C[C@H](O)[C@]45C)[n+](Cc4ccc(Br)cc4)ccc3c2c1.[Br-] |  |  |  |  |  |  |  | 2 µg/mL | 2 µg/mL | 4 µg/mL | 4 µg/mL | 1 µg/mL | 2 µg/mL | 2 µg/mL | 2 µg/mL |
| COc1cccc(C[n+]2ccc3c([nH]c4ccc(OC)cc43)c2CC[C@H](C)[C@H]2CC[C@H]3[C@@H]4[C@H](O)C[C@@H]5C[C@H](O)CC[C@]5(C)[C@H]4C[C@H](O)[C@]23C)c1.[Br-] |  |  |  |  |  |  |  | 2 µg/mL | 4 µg/mL | 8 µg/mL | 8 µg/mL | 1 µg/mL | 1 µg/mL | 4 µg/mL | 4 µg/mL |
| CCCC[n+]1ccc2c([nH]c3ccc(OC)cc32)c1CC[C@H](C)[C@H]1CC[C@H]2[C@@H]3[C@H](O)C[C@@H]4C[C@H](O)CC[C@]4(C)[C@H]3CC[C@]12C.[Br-] |  |  |  |  |  |  |  | 2 µg/mL | 4 µg/mL | 16 µg/mL | 8 µg/mL | 1 µg/mL | 4 µg/mL | 4 µg/mL | 8 µg/mL |
| CCCCCCCCCC(=O)N[C@@H](Cc1c[nH]c2ccccc12)C(=O)N[C@@H](CC(N)=O)C(=O)N[C@@H](CC(=O)O)C(=O)N[C@@H]1C(=O)NCC(=O)N[C@@H](CCCN)C(=O)N[C@@H](CC(=O)O)C(=O)N[C@H](C)C(=O)N[C@@H](CC(=O)O)C(=O)NCC(=O)N[C@H](CO)C(=O)N[C@@H]([C@@H](C)CC(=O)O)C(=O)N[C@@H](CC(=O)c2ccccc2N)C(=O)O[C@@H]1C | inactive |  |  |  |  |  |  |  |  |  |  |  |  |  |  |
| COc1ccc2[nH]c3c(CC[C@H](C)[C@H]4CC[C@H]5[C@@H]6[C@H](O)C[C@@H]7C[C@H](O)CC[C@]7(C)[C@H]6C[C@H](O)[C@]45C)[n+](Cc4ccccc4F)ccc3c2c1.[Br-] |  |  |  |  |  |  |  | 2 µg/mL | 4 µg/mL | 4 µg/mL | 4 µg/mL | 1 µg/mL | 1 µg/mL | 2 µg/mL | 2 µg/mL |
| COc1ccc2[nH]c3c(CC[C@H](C)[C@H]4CC[C@H]5[C@@H]6[C@H](O)C[C@@H]7C[C@H](O)CC[C@]7(C)[C@H]6C[C@H](O)[C@]45C)[n+](Cc4ccc(C)cc4)ccc3c2c1.[Br-] |  |  |  |  |  |  |  | 1 µg/mL | 4 µg/mL | 8 µg/mL | 8 µg/mL | 0.5 µg/mL | 1 µg/mL | 4 µg/mL | 2 µg/mL |
